Experimental data from ChEMBL document CHEMBL1629608, “Variations in amino acid composition of antisense peptide-phosphorodiamidate morpholino oligomer affect potency against Escherichia coli in vitro and in vivo” (Antimicrob Agents Chemother, 2009).
≈ marks a conversion by molar mass, not a printed value.

Tested on: Escherichia coli
Test: Antibacterial activity against Escherichia coli K-12 W3110 by microdilution method
Assay type: functional
Settings: K-12 substr. W3110

| SMILES | MIC [µM] |
| --- | --- |
| Cc1cn([C@H]2CN(P(=O)(OC[C@@H]3CN(P(=O)(OC[C@@H]4CN(P(=O)(OC[C@@H]5CN(P(=O)(OC[C@@H]6CN(P(=O)(OC[C@@H]7CN(P(=O)(OC[C@@H]8CN(P(=O)(OC[C@@H]9CN(P(=O)(OC[C@@H]%10CNC[C@H](n%11cnc%12c(=O)[nH]c(N)nc%12%11)O%10)N(C)C)C[C@H](n%10cc(C)c(=O)[nH]c%10=O)O9)N(C)C)C[C@H](n9cnc%10c(=O)[nH]c(N)nc%109)O8)N(C)C)C[C@H](n8cnc9c(N)ncnc98)O7)N(C)C)C[C@H](n7cc(C)c(=O)[nH]c7=O)O6)N(C)C)C[C@H](n6cnc7c(N)ncnc76)O5)N(C)C)C[C@H](n5cnc6c(=O)[nH]c(N)nc65)O4)N(C)C)C[C@H](n4ccc(N)nc4=O)O3)N(C)C)C[C@@H](COP(=O)(N(C)C)N3C[C@@H](COP(=O)(N(C)C)N4C[C@@H](COP(=O)(N(C)C)N5CCN(C(=O)CCNC(=O)CCCCCNC(=O)[C@@H](N)CCCNC(=O)CCCCCNC(=O)[C@@H](N)CCCNC(=O)CCCCCNC(=O)[C@@H](N)CCCNC(=O)CCCCCNC(=O)[C@@H](N)CCCNC(=O)CCCCCNC(=O)[C@@H](N)CCCNC(=O)CCCCCNC(=O)[C@@H](N)CCCN)CC5)O[C@@H](n5ccc(N)nc5=O)C4)O[C@@H](n4cc(C)c(=O)[nH]c4=O)C3)O2)c(=O)[nH]c1=O (stereo partly drawn) | > 80 |
| Cc1cn([C@H]2CN(P(=O)(OC[C@@H]3CN(P(=O)(OC[C@@H]4CN(P(=O)(OC[C@@H]5CN(P(=O)(OC[C@@H]6CN(P(=O)(OC[C@@H]7CN(P(=O)(OC[C@@H]8CN(P(=O)(OC[C@@H]9CN(P(=O)(OC[C@@H]%10CNC[C@H](n%11cnc%12c(=O)[nH]c(N)nc%12%11)O%10)N(C)C)C[C@H](n%10cc(C)c(=O)[nH]c%10=O)O9)N(C)C)C[C@H](n9cnc%10c(=O)[nH]c(N)nc%109)O8)N(C)C)C[C@H](n8cnc9c(N)ncnc98)O7)N(C)C)C[C@H](n7cc(C)c(=O)[nH]c7=O)O6)N(C)C)C[C@H](n6cnc7c(N)ncnc76)O5)N(C)C)C[C@H](n5cnc6c(=O)[nH]c(N)nc65)O4)N(C)C)C[C@H](n4ccc(N)nc4=O)O3)N(C)C)C[C@@H](COP(=O)(N(C)C)N3C[C@@H](COP(=O)(N(C)C)N4C[C@@H](COP(=O)(N(C)C)N5CCN(C(=O)CCNC(=O)CCCCCNC(=O)[C@@H](Cc6ccccc6)NC(=O)[C@@H](Cc6ccccc6)NC(=O)[C@@H](CCCNC(=N)N)NC(=O)[C@@H](Cc6ccccc6)NC(=O)[C@@H](Cc6ccccc6)NC(=O)[C@@H](CCCNC(=N)N)NC(=O)[C@@H](Cc6ccccc6)NC(=O)[C@H](Cc6ccccc6)NC(=O)[C@H](N)CCCNC(=N)N)CC5)O[C@@H](n5ccc(N)nc5=O)C4)O[C@@H](n4cc(C)c(=O)[nH]c4=O)C3)O2)c(=O)[nH]c1=O (stereo partly drawn) | 5 (≈ 26.6 µg/mL) |
| Cc1cn([C@H]2CN(P(=O)(OC[C@@H]3CN(P(=O)(OC[C@@H]4CN(P(=O)(OC[C@@H]5CN(P(=O)(OC[C@@H]6CN(P(=O)(OC[C@@H]7CN(P(=O)(OC[C@@H]8CN(P(=O)(OC[C@@H]9CN(P(=O)(OC[C@@H]%10CNC[C@H](n%11cnc%12c(=O)[nH]c(N)nc%12%11)O%10)N(C)C)C[C@H](n%10cc(C)c(=O)[nH]c%10=O)O9)N(C)C)C[C@H](n9cnc%10c(=O)[nH]c(N)nc%109)O8)N(C)C)C[C@H](n8cnc9c(N)ncnc98)O7)N(C)C)C[C@H](n7cc(C)c(=O)[nH]c7=O)O6)N(C)C)C[C@H](n6cnc7c(N)ncnc76)O5)N(C)C)C[C@H](n5cnc6c(=O)[nH]c(N)nc65)O4)N(C)C)C[C@H](n4ccc(N)nc4=O)O3)N(C)C)C[C@@H](COP(=O)(N(C)C)N3C[C@@H](COP(=O)(N(C)C)N4C[C@@H](COP(=O)(N(C)C)N5CCN(C(=O)CCNC(=O)CCCCCNC(=O)[C@H](Cc6ccccc6)NC(=O)[C@H](Cc6ccccc6)NC(=O)[C@@H](N)CCCNC(=N)N)CC5)O[C@@H](n5ccc(N)nc5=O)C4)O[C@@H](n4cc(C)c(=O)[nH]c4=O)C3)O2)c(=O)[nH]c1=O (stereo partly drawn) | > 80 |
| Cc1cn([C@H]2CN(P(=O)(OC[C@@H]3CN(P(=O)(OC[C@@H]4CN(P(=O)(OC[C@@H]5CN(P(=O)(OC[C@@H]6CN(P(=O)(OC[C@@H]7CN(P(=O)(OC[C@@H]8CN(P(=O)(OC[C@@H]9CN(P(=O)(OC[C@@H]%10CNC[C@H](n%11cnc%12c(=O)[nH]c(N)nc%12%11)O%10)N(C)C)C[C@H](n%10cc(C)c(=O)[nH]c%10=O)O9)N(C)C)C[C@H](n9cnc%10c(=O)[nH]c(N)nc%109)O8)N(C)C)C[C@H](n8cnc9c(N)ncnc98)O7)N(C)C)C[C@H](n7cc(C)c(=O)[nH]c7=O)O6)N(C)C)C[C@H](n6cnc7c(N)ncnc76)O5)N(C)C)C[C@H](n5cnc6c(=O)[nH]c(N)nc65)O4)N(C)C)C[C@H](n4ccc(N)nc4=O)O3)N(C)C)C[C@@H](COP(=O)(N(C)C)N3C[C@@H](COP(=O)(N(C)C)N4C[C@@H](COP(=O)(N(C)C)N5CCN(C(=O)CCNC(=O)CCCCCNC(=O)[C@H](CCCNC(=N)N)NC(=O)CCNC(=O)[C@H](CCCNC(=N)N)NC(=O)[C@H](CCCNC(=N)N)NC(=O)CCCCCNC(=O)[C@H](CCCNC(=N)N)NC(=O)NC(=O)[C@H](CCCNC(=N)N)NC(=O)CCNC(=O)[C@H](CCCNC(=N)N)NC(=O)[C@H](CCCNC(=N)N)NC(=O)CCCCCNC(=O)[C@@H](N)CCCNC(=N)N)CC5)O[C@@H](n5ccc(N)nc5=O)C4)O[C@@H](n4cc(C)c(=O)[nH]c4=O)C3)O2)c(=O)[nH]c1=O (stereo partly drawn) | 2.5 (≈ 14.1 µg/mL) |
| Cc1cn([C@H]2CN(P(=O)(OC[C@@H]3CN(P(=O)(OC[C@@H]4CN(P(=O)(OC[C@@H]5CN(P(=O)(OC[C@@H]6CN(P(=O)(OC[C@@H]7CN(P(=O)(OC[C@@H]8CN(P(=O)(OC[C@@H]9CN(P(=O)(OC[C@@H]%10CNC[C@H](n%11cnc%12c(=O)[nH]c(N)nc%12%11)O%10)N(C)C)C[C@H](n%10cc(C)c(=O)[nH]c%10=O)O9)N(C)C)C[C@H](n9cnc%10c(=O)[nH]c(N)nc%109)O8)N(C)C)C[C@H](n8cnc9c(N)ncnc98)O7)N(C)C)C[C@H](n7cc(C)c(=O)[nH]c7=O)O6)N(C)C)C[C@H](n6cnc7c(N)ncnc76)O5)N(C)C)C[C@H](n5cnc6c(=O)[nH]c(N)nc65)O4)N(C)C)C[C@H](n4ccc(N)nc4=O)O3)N(C)C)C[C@@H](COP(=O)(N(C)C)N3C[C@@H](COP(=O)(N(C)C)N4C[C@@H](COP(=O)(N(C)C)N5CCN(C(=O)CCNC(=O)CCCCCNC(=O)[C@H](CCCNC(=N)N)NC(=O)CCCCCNC(=O)[C@H](CCCNC(=N)N)NC(=O)CCCCCNC(=O)[C@H](CCCNC(=N)N)NC(=O)CCCCCNC(=O)[C@@H](N)CCCNC(=N)N)CC5)O[C@@H](n5ccc(N)nc5=O)C4)O[C@@H](n4cc(C)c(=O)[nH]c4=O)C3)O2)c(=O)[nH]c1=O (stereo partly drawn) | 80 (≈ 394 µg/mL) |
| Cc1cn([C@H]2CN(P(=O)(OC[C@@H]3CN(P(=O)(OC[C@@H]4CN(P(=O)(OC[C@@H]5CN(P(=O)(OC[C@@H]6CN(P(=O)(OC[C@@H]7CN(P(=O)(OC[C@@H]8CN(P(=O)(OC[C@@H]9CN(P(=O)(OC[C@@H]%10CNC[C@H](n%11cnc%12c(=O)[nH]c(N)nc%12%11)O%10)N(C)C)C[C@H](n%10cc(C)c(=O)[nH]c%10=O)O9)N(C)C)C[C@H](n9cnc%10c(=O)[nH]c(N)nc%109)O8)N(C)C)C[C@H](n8cnc9c(N)ncnc98)O7)N(C)C)C[C@H](n7cc(C)c(=O)[nH]c7=O)O6)N(C)C)C[C@H](n6cnc7c(N)ncnc76)O5)N(C)C)C[C@H](n5cnc6c(=O)[nH]c(N)nc65)O4)N(C)C)C[C@H](n4ccc(N)nc4=O)O3)N(C)C)C[C@@H](COP(=O)(N(C)C)N3C[C@@H](COP(=O)(N(C)C)N4C[C@@H](COP(=O)(N(C)C)N5CCN(C(=O)CCNC(=O)CCCCCNC(=O)CCCCCNC(=O)[C@H](CCCNC(=N)N)NC(=O)CCCCCNC(=O)CCCCCNC(=O)[C@H](CCCNC(=N)N)NC(=O)CCCCCNC(=O)CCCCCNC(=O)[C@@H](N)CCCNC(=N)N)CC5)O[C@@H](n5ccc(N)nc5=O)C4)O[C@@H](n4cc(C)c(=O)[nH]c4=O)C3)O2)c(=O)[nH]c1=O (stereo partly drawn) | 20 (≈ 100 µg/mL) |
| Cc1cn([C@H]2CN(P(=O)(OC[C@@H]3CN(P(=O)(OC[C@@H]4CN(P(=O)(OC[C@@H]5CN(P(=O)(OC[C@@H]6CN(P(=O)(OC[C@@H]7CN(P(=O)(OC[C@@H]8CN(P(=O)(OC[C@@H]9CN(P(=O)(OC[C@@H]%10CNC[C@H](n%11cnc%12c(=O)[nH]c(N)nc%12%11)O%10)N(C)C)C[C@H](n%10cc(C)c(=O)[nH]c%10=O)O9)N(C)C)C[C@H](n9cnc%10c(=O)[nH]c(N)nc%109)O8)N(C)C)C[C@H](n8cnc9c(N)ncnc98)O7)N(C)C)C[C@H](n7cc(C)c(=O)[nH]c7=O)O6)N(C)C)C[C@H](n6cnc7c(N)ncnc76)O5)N(C)C)C[C@H](n5cnc6c(=O)[nH]c(N)nc65)O4)N(C)C)C[C@H](n4ccc(N)nc4=O)O3)N(C)C)C[C@@H](COP(=O)(N(C)C)N3C[C@@H](COP(=O)(N(C)C)N4C[C@@H](COP(=O)(N(C)C)N5CCN(C(=O)CCNC(=O)CCCCCNC(=O)[C@H](CCCCN)NC(=O)CCCCCNC(=O)[C@H](CCCCN)NC(=O)CCCCCNC(=O)[C@H](CCCCN)NC(=O)CCCCCNC(=O)[C@H](CCCCN)NC(=O)CCCCCNC(=O)[C@H](CCCCN)NC(=O)CCCCCNC(=O)[C@@H](N)CCCCN)CC5)O[C@@H](n5ccc(N)nc5=O)C4)O[C@@H](n4cc(C)c(=O)[nH]c4=O)C3)O2)c(=O)[nH]c1=O (stereo partly drawn) | > 80 |
| Cc1cn([C@H]2CN(P(=O)(OC[C@@H]3CN(P(=O)(OC[C@@H]4CN(P(=O)(OC[C@@H]5CN(P(=O)(OC[C@@H]6CN(P(=O)(OC[C@@H]7CN(P(=O)(OC[C@@H]8CN(P(=O)(OC[C@@H]9CN(P(=O)(OC[C@@H]%10CNC[C@H](n%11cnc%12c(=O)[nH]c(N)nc%12%11)O%10)N(C)C)C[C@H](n%10cc(C)c(=O)[nH]c%10=O)O9)N(C)C)C[C@H](n9cnc%10c(=O)[nH]c(N)nc%109)O8)N(C)C)C[C@H](n8cnc9c(N)ncnc98)O7)N(C)C)C[C@H](n7cc(C)c(=O)[nH]c7=O)O6)N(C)C)C[C@H](n6cnc7c(N)ncnc76)O5)N(C)C)C[C@H](n5cnc6c(=O)[nH]c(N)nc65)O4)N(C)C)C[C@H](n4ccc(N)nc4=O)O3)N(C)C)C[C@@H](COP(=O)(N(C)C)N3C[C@@H](COP(=O)(N(C)C)N4C[C@@H](COP(=O)(N(C)C)N5CCN(C(=O)CCNC(=O)CCCCCNC(=O)[C@H](CCCCN)NC(=O)[C@H](Cc6ccccc6)NC(=O)[C@H](Cc6ccccc6)NC(=O)[C@H](CCCCN)NC(=O)[C@H](Cc6ccccc6)NC(=O)[C@H](Cc6ccccc6)NC(=O)[C@H](CCCCN)NC(=O)[C@H](Cc6ccccc6)NC(=O)[C@H](Cc6ccccc6)NC(=O)[C@@H](N)CCCCN)CC5)O[C@@H](n5ccc(N)nc5=O)C4)O[C@@H](n4cc(C)c(=O)[nH]c4=O)C3)O2)c(=O)[nH]c1=O (stereo partly drawn) | 10 (≈ 53.6 µg/mL) |
